Results: publication PMC11059152, “Discovery of an Aldo-Keto reductase 1C3 (AKR1C3) degrader” (Communications Chemistry, 2024)
Numbering of substitutions follows the chain as printed.

How the values were obtained:
Format in all cases: biochemical
AKR1C3 = target: T1, AKR1C3 (Homo sapiens, UniProt P42330); assay: inhibition of NADP+-dependent S-tetralol oxidation by recombinant enzyme
T1 construct: homogeneous recombinant enzyme
T1 sequence (P42330 1-323): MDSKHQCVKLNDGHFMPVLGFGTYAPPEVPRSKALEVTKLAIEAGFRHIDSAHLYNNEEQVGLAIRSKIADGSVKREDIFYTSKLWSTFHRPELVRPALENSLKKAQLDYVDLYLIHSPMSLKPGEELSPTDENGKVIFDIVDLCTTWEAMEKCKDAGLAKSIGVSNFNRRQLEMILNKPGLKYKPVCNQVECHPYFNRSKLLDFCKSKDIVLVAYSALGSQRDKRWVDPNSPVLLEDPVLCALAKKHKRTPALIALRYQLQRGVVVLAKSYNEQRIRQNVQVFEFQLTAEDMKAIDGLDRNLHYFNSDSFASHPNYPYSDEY

AKR1C2 = target: T2, AKR1C2 (Homo sapiens, UniProt P52895); assay: oxidation by purified enzyme, absorbance at […] nm; Km; conditions: cited from earlier work
T2 construct: homogeneous recombinant enzyme
T2 sequence (P52895 1-323): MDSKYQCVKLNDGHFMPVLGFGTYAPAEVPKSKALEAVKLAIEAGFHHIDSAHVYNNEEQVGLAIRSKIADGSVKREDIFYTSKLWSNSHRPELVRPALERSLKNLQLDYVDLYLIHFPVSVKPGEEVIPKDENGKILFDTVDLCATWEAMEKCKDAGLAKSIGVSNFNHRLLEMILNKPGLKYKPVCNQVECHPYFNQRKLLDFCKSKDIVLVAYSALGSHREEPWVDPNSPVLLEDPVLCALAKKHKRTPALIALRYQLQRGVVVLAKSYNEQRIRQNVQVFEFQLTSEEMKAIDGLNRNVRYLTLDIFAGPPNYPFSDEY

AKR1C1 = target: T3, AKR1C1 (Homo sapiens, UniProt Q04828); assay: specific activity of purified enzyme, absorbance at […] nm
T3 construct: homogeneous recombinant enzyme
T3 sequence (Q04828 1-323): T2 sequence (P52895 1-323) with V38T, H47R, V54L, S87C, M151V, H170R, L172Q

| SMILES | IC50 (AKR1C3) [nM] | Km (AKR1C2) [µM] | specific activity of purified enzyme, absorbance at 340 nm (AKR1C1) [µmol/min/mg] |
| --- | --- | --- | --- |
| O=C(O)/C=C/c1cc(C(=O)NCc2ccc(OCc3cn(CCOCCOCC(=O)Nc4cccc5c4CN(C4CCC(=O)NC4=O)C5=O)nn3)cc2)cc(-c2ccccc2)c1 (stereo not shown) [compound 5, (E)-3-(5-((4-((1-(2-(2-(2-((2-(2,6-dioxopiperidin-3-yl)-1-oxoisoindolin-4-yl)amino)-2-oxoethoxy)ethoxy)ethyl)-1H-1,2,3-triazol-4-yl)methoxy)benzyl)carbamoyl)-[1,1’-biphenyl]-3-yl)acrylic acid] | 77 ± 2 |  |  |
| C#CCOc1ccc(CNC(=O)c2cc(/C=C/C(=O)O)cc(-c3ccccc3)c2)cc1 [compound 4, warhead 4] | 62 ± 1 |  |  |
| O[C@H]1CCCc2ccccc21 [S-tetralol, (S)-(+)-1,2,3,4-tetrahydro-1-naphthol] |  | 15 | 1.4 |
